Measured values published in patent US20240376097A1, “BCL-2 Inhibitor” (BeiGene Ltd., priority 2020, published 2024).
Where two headings read alike, the source gives them in different places.

Tests used:
[1] = system: RS4;11 (BCL-2 dependent acute lymphoblastic leukemia cell line); assay: RS4;11 Cell Proliferation Assay; type: cell-based; settings: Homo sapiens, RS4-11, RS4;11 cells, read-out: Cellular proliferation assay (IC50, nM) RS4
Method in brief: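 RS4;11 cells, 50,000 per well in RPMI-1640 with 10% FBS, treated 48 h at 37 °C with a 10-point dilution series topping at 1 μM. Viability read by CellTiter-Glo ATP luminescence; mean IC50 reported.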

[2] = system: BCL-2 G101V knock-in cell line H96 (derive from RS4;11); assay: Bcl 2-G101V Knock-In RS4;11 Cell Proliferation Assay; type: cell-based; settings: Homo sapiens, RS4;11 Bcl-2 G101V knock-in clone H96, 48 hrs, CellTiter-GLO, read-out: Cellular proliferation assay (IC50, nM) RS4
Method in brief: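 H96, a CRISPR-generated RS4;11 clone carrying BCL2-G101V knock-in (WES/RNA-seq validated), seeded 50,000 per well and exposed 48 h at 37 °C to 10-point dilutions topping at 1 or 10 μM. Viability by CellTiter-Glo luminescence; mean IC50.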

[3] = target: recombinant human Bcl-2 D103Y protein (Homo sapiens (Human), UniProt P10415, D103Y); assay: Bcl-2-D103Y Biochemical Assay (TR-FRET); type: binding; settings: for IC50: TR-FRET, FITC labeled Bak peptide; for Ratio of Bcl-2 D103Y/Bcl-2 WT: ratio of IC50
Method in brief: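 Recombinant human Bcl-2 D103Y binding to its ligand measured by TR-FRET (ex 337 nm, em 490/520 nm) with increasing compound concentrations. Percent inhibition from the 490/520 nm ratio; IC50 from four-parameter logistic fit.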

[4] = target: Recombinant human Bcl-2 protein (Homo sapiens (Human), UniProt P10415); assay: Bcl-2 TR-FRET Assay; type: binding
Method in brief: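 Compounds were pre-incubated with 0.05 nM recombinant Bcl-2 for 0.5 h at room temperature in potassium phosphate buffer, pH 7.5. FITC-Bak peptide (0.5 nM) and Tb-cryptate antibody were then added for 1 h. Percent inhibition from TR-FRET signals gave IC50 values.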

[5] = target: recombinant human Bcl-2-G101V protein (Homo sapiens (Human), UniProt P10415, G101V); assay: Bcl-2-G101V TR-FRET Assay; type: binding; settings: Bcl-2 G101V mutant, TR-FRET; read-out: Biochemical assay (IC50, nM) Bcl-2 G101V
Method in brief: (§1)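 Compounds were titrated at increasing concentrations against the Bcl-2-G101V–ligand interaction. TR-FRET signals were then read (ex 337 nm; em 490/520 nm). Percent inhibition was derived from the 490-to-520 nm ratio, and IC50 from a four-parameter logistic equation.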

[6] = system: recombinant human Bcl-2-G101V protein; assay: Bcl-2-G101V TR-FRET Assay; type: binding; settings: ratio of biochemical IC50 Bcl-2 G101V / Bcl-2 WT
Method in brief: as §1

[7] = Bcl-2 wild type, TR-FRET, read-out: Biochemical assay (IC50, nM) Bcl-2 WT
[8] = wild type Bcl-2, unit inferred, read-out: Bcl-2 WT

Compound	IC50 [1] [nM]	IC50 [2] [nM]	IC50 [3] [nM]	Ratio of Bcl-2 D103Y/Bcl-2 WT [3]	IC50 [4, 7] [nM]	IC50 [4, 8] [nM]	IC50 [5] [nM]	Ratio of Bcl-2 G101V/WT [6]
[2H]C([2H])([2H])Oc1ccc(CN2CCN(C3CC4(C3)CN(c3ccc(C(=O)NS(=O)(=O)c5ccc(NC[C@H]6CC[C@](C)(O)CC6)c([N+](=O)[O-])c5)c(Oc5cnc6[nH]ccc6c5)c3)C4)[C@H](c3ccccc3C(C)C)C2)cc1OC([2H])([2H])[2H] [Example 243, 2-((1H-pyrrolo[2,3-b]pyridin-5-yl)oxy)-4-(6-((R)-4-(3,4-bis(methoxy-d3)benzyl)-2-(2-isopropylphenyl)piperazin-1-yl)-2-azaspiro[3.3]heptan-2-yl)-N-((4-((((1r,4r)-4-hydroxy-4-methylcyclohexyl)methyl)amino)-3-nitrophenyl)sulfonyl)benzamide]	0.12	0.22	0.041	1	0.04	0.041	0.086	2.1
COc1cc(CN2CCN(C3CC4(CCN(c5ccc(C(=O)NS(=O)(=O)c6ccc(NC[C@H]7CC[C@](C)(O)CC7)c([N+](=O)[O-])c6)c(Oc6cnc7[nH]cc(F)c7c6)c5)CC4)C3)[C@H](c3ccccc3C(C)C)C2)ccc1C1CC1 [Example 258, 4-(2-((R)-4-(4-cyclopropyl-3-methoxybenzyl)-2-(2-isopropylphenyl)piperazin-1-yl)-7-azaspiro[3.5]nonan-7-yl)-2-((3-fluoro-1H-pyrrolo[2,3-b]pyridin-5-yl)oxy)-N-((4-((((1r,4r)-4-hydroxy-4-methylcyclohexyl)methyl)amino)-3-nitrophenyl)sulfonyl) benzamide]	0.11	0.28	1.5	1.8	0.85	0.85	1.75	2.1
COc1cc(CN2CCN(C3CC4(CCN(c5ccc(C(=O)NS(=O)(=O)c6ccc(NC[C@H]7CC[C@](C)(O)CC7)c([N+](=O)[O-])c6)c(Oc6cnc7[nH]ccc7c6)c5)CC4)C3)[C@H](c3ccccc3C(C)C)C2)ccc1C [Example 260, 2-((1H-pyrrolo[2,3-b]pyridin-5-yl)oxy)-N-((4-((((1r,4r)-4-hydroxy-4-methylcyclohexyl)methyl)amino)-3-nitrophenyl)sulfonyl)-4-(2-((R)-2-(2-isopropylphenyl)-4-(3-methoxy-4-methylbenzyl)piperazin-1-yl)-7-azaspiro[3.5]nonan-7-yl)benzamide]	0.13	0.33	0.27	1.1	0.34	0.24	0.75	2.2
CCc1ccc(CN2CCN(C3CC4(C3)CN(c3ccc(C(=O)NS(=O)(=O)c5ccc(NC[C@H]6CC[C@](C)(O)CC6)c([N+](=O)[O-])c5)c(Oc5cnc6[nH]cc(F)c6c5)c3)C4)[C@H](c3ccccc3C(C)C)C2)cc1OC [Example 268, 4-(6-((R)-4-(4-ethyl-3-methoxybenzyl)-2-(2-isopropylphenyl)piperazin-1-yl)-2-azaspiro[3.3]heptan-2-yl)-2-((3-fluoro-1H-pyrrolo[2,3-b]pyridin-5-yl)oxy)-N-((4-((((1r,4r)-4-hydroxy-4-methylcyclohexyl)methyl)amino)-3-nitrophenyl)sulfonyl) benzamide]	0.1	0.25	0.88	1.1	0.79	0.79	1.3	1.6
COc1cc(CN2CCN(C3CC4(CCN(c5ccc(C(=O)NS(=O)(=O)c6ccc(NC[C@H]7CC[C@](C)(O)CC7)c([N+](=O)[O-])c6)c(Oc6cnc7[nH]cc(F)c7c6)c5)CC4)C3)[C@H](c3ccccc3C(C)C)C2)ccc1C [Example 273, 2-((3-fluoro-1H-pyrrolo[2,3-b]pyridin-5-yl)oxy)-N-((4-((((1r,4r)-4-hydroxy-4-methylcyclohexyl)methyl)amino)-3-nitrophenyl)sulfonyl)-4-(2-((R)-2-(2-isopropylphenyl)-4-(3-methoxy-4-methylbenzyl)piperazin-1-yl)-7-azaspiro[3.5]nonan-7-yl)benzamide]	0.25	0.46	0.82	1.2	0.7	0.7	1.9	2.6
COc1cc(CN2CCN(C3CC4(C3)CN(c3ccc(C(=O)NS(=O)(=O)c5ccc(NC[C@H]6CC[C@](C)(O)CC6)c([N+](=O)[O-])c5)c(Oc5cnc6[nH]ccc6c5)c3)C4)[C@H](c3ccccc3C(C)C)C2)ccc1C [Example 275, 2-((1H-pyrrolo[2,3-b]pyridin-5-yl)oxy)-N-((4-((((1r,4r)-4-hydroxy-4-methylcyclohexyl)methyl)amino)-3-nitrophenyl)sulfonyl)-4-(6-((R)-2-(2-isopropylphenyl)-4-(3-methoxy-4-methylbenzyl)piperazin-1-yl)-2-azaspiro[3.3]heptan-2-yl)benzamide]	0.14	0.38	0.21	0.76	0.27	0.27	0.54	2
CC(C)c1ccccc1[C@@H]1CN(Cc2ccc3c(c2)OCCC3)CCN1C1CC2(CCN(c3ccc(C(=O)NS(=O)(=O)c4ccc(NC[C@H]5CC[C@](C)(O)CC5)c([N+](=O)[O-])c4)c(Oc4cnc5[nH]ccc5c4)c3)CC2)C1 [Example 282]	0.36	4.2	0.47	1.9	0.25	0.25	0.97	3.9
COc1cc(CN2CCN(C3CC4(CCN(c5ccc(C(=O)NS(=O)(=O)c6ccc(NC[C@H]7CC[C@](C)(O)CC7)c([N+](=O)[O-])c6)c(Oc6cnc7[nH]ccc7c6)c5)CC4)C3)[C@H](c3ccccc3C(C)C)C2)ccc1C(F)F [Example 288, 2-((1H-pyrrolo[2,3-b]pyridin-5-yl)oxy)-4-(2-((R)-4-(4-(difluoromethyl)-3-methoxybenzyl)-2-(2-isopropylphenyl)piperazin-1-yl)-7-azaspiro[3.5]nonan-7-yl)-N-((4-((((1r,4r)-4-hydroxy-4-methylcyclohexyl)methyl)amino)-3-nitrophenyl)sulfonyl)benzamide]	0.19	0.87	0.43	0.84	0.52	0.52	1.3	2.5
COc1cc(CN2CCN(C3CC4(C3)CN(c3ccc(C(=O)NS(=O)(=O)c5ccc(NC[C@H]6CC[C@](C)(O)CC6)c([N+](=O)[O-])c5)c(Oc5cnc6[nH]cc(F)c6c5)c3)C4)[C@H](c3ccccc3C(C)C)C2)cc2c1OCC2(C)C [Example 295, 2-((3-fluoro-1H-pyrrolo[2,3-b]pyridin-5-yl)oxy)-N-((4-((((1r,4r)-4-hydroxy-4-methylcyclohexyl)methyl)amino)-3-nitrophenyl)sulfonyl)-4-(6-((R)-2-(2-isopropylphenyl)-4-((7-methoxy-3,3-dimethyl-2,3-dihydrobenzofuran-5-yl)methyl)piperazin-1-yl)-2-azaspiro[3.3]heptan-2-yl)benzamide]	0.29	0.49	0.25	1.3	0.19	0.19	0.56	3.0
